The test system of experiment [1] is BNGR-A21 (BmCrzR). The class given is cell-based, Bombyx mori.
Experiment [2] deals with BmCrzR (BNGR-A21). Nature of the experiment: ERK1/2 activation assay in HEK293 cells stably expressing BmCrzR. It counts as cell-based, Bombyx mori. The following applies: HEK293 cells stably transfected with BmCrzR; 1 h pretreatment (H89 10 μM, Go6983 10 μM, U0126 1 μM), then corazonin 1 nM, 5 min.
Experiment [3] deals with BNGR-A21 (BmCrzR). The experiment in a line: intracellular calcium measurement (fura-2) in HEK293 cells. The class given is cell-based, Bombyx mori. The following applies: pretreatment with YM-254890 1 μM, U73122 10 μM, EGTA 5 mM, BAPTA-AM 50 μM or nifedipine 10 μM, corazonin (1 μM with YM-254890). As to the method: (§1) The stable FLAG-A21- and BmFlag-A21-expressing HEK293 and Sf21 cells were washed twice with phosphate-buffered saline and resuspended at 5 × 10^6 cells/ml in Hanks' balanced salt solution. The cells were detached by a Nonenzymatic Cell Dissociation Solution (M&C Gene Technology, China) or 0.02% EGTA and then loaded with 3 μM Fura 2-AM (Dojindo Laboratories, Japan) for 30 min at 37 °C. Cells were washed twice in Hanks' solution and then resuspended in Hanks' solution at a concentration of 3 × 10^7 cells/ml. Calcium flux was measured using excitation wavelengths of 340 and 380 nm in a fluorescence spectrometer (Tecan Infinite 200 PRO, Switzerland).
(§2) FIGURE 4. Intracellular Ca^2+ influx. HEK293 (A) and Sf21 (B) cells, respectively, transfected with FLAG-A21 and BmFlag-A21 were measured in response to different concentrations of corazonin peptide using the fluorescent Ca^2+ indicator fura-2. C, effect of pretreatment of the Gq inhibitor on corazonin (1 μM)-mediated Ca^2+ influx in HEK293 cells. D, effects of pretreatment of calcium chelators (EGTA, 5 mM, and BAPTA-AM, 50 μM) and L-calcium channel (nefidipine, 10 μM) inhibitors on corazonin-mediated Ca^2+ influx in HEK293 cells. Effect of pretreatment of PLC inhibitor (U73122, 10 μM) on corazonin-mediated Ca^2+ influx in HEK293 (E) and Sf21 (F) cells. The figures are representative of more than three independent experiments.
(Calcium assays in cells follow changes in intracellular calcium, usually with a dye or a luminescent sensor.)

In the next experiment the test system is CrzR in A. gambiae. Also on record: method as in PMID 16616003. The settings on record: cited from earlier work.
Experiment [4] addresses Bombyx neuropeptide G protein-coupled receptor A21 (BNGR-A21), N-terminal FLAG tag (Bombyx mori) (UniProt B3XXN4).
The target is the same in experiment [5]. This is another data set of the same source.
Experiment [6] shares this target. The experiment in a line: fluorescent ligand competition binding on whole cells; HEK293 cells stably expressing FLAG-A21 in poly-D-lysine-coated 96-well plates; labeled ligand (Rho-[Lys^4]BmCrz) with buffer or unlabeled ligand in PBS with 0.2% BSA, room temperature 90 min, washed with ice-cold PBS with 0.1% BSA; fluorescence intensity as percentage of total binding.

Experiment [7] relates to BNGR-A21 (BmCrzR). Nature of the experiment: intracellular calcium measurement (fura-2) in Sf21 cells. It counts as cell-based, Bombyx mori. The settings on record: pretreatment with U73122 10 μM. As to the method: as §1, §2
Experiment [8] deals with BmCrzR (BNGR-A21). Nature of the experiment: CRE-driven luciferase assay of rhodamine-labeled corazonin. It counts as cell-based, Bombyx mori. The following applies: Fig. 5A; CRE-driven luciferase system; rhodamine red-labeled peptide; read-out: activation of BmCrzR (CRE-driven luciferase), EC50. As for the experimental part:
After seeding in a 48-well plate overnight, HEK293 or Sf21 cells transiently or stably cotransfected with BNGR-A21 and pCRE-Luc were grown to 90–95% confluence, stimulated with the corazonin peptides in DMEM without FBS, and incubated for 4–6 h at 37 °C. Luciferase activity was detected by a firefly luciferase assay kit (KenReal, Shanghai, China). The cAMP concentration was assessed using a commercially available cAMP detection kit (R&D Systems).
All results are expressed as the mean ± S.E. Data were analyzed using nonlinear curve fitting (GraphPad Prism version 5.0) to obtain EC50 values. Statistical significance was determined using Student's t test. Probability values that were less than or equal to 0.05 were considered significant.
FIGURE 5. Direct interaction of BNGR-A21 with corazonin. A, rhodamine red-labeled [Lys^4]corazonin activity was assayed using the CRE-driven luciferase system. B, binding of Rho-[Lys^4]BmCrz to BNGR-A21 expressed in HEK293 cells was measured in the presence of different concentrations of unlabeled peptides or in the absence of unlabeled peptides (total binding). The extent of binding was determined by fluorescence intensity and is presented as a percentage of the total binding. The results represent the mean ± S.D. (n = 3).

The target of experiment [9] is Bombyx neuropeptide G protein-coupled receptor A21 (BNGR-A21), N-terminal FLAG tag (Bombyx mori) (UniProt B3XXN4). This is another data set of the same source.

“Also recorded” adds a separate entry of the source. Numbered stars: 1 amine (or outer) side, 2 acyl side, 3 side chain; on linkers, the order of the positions; unused ones are H or OH. Bridge positions count the residues as written; N and C are the ends. Square brackets hold non-standard residues; d marks the D form. Ends that are not written are not given here. Peptide text beside a SMILES is read from it. X1 = CC(=O)NC(C(=O)OC(C(C)C)C(N[*:1])C(=O)[*:2])C(O)C(C)C; rhodamine red = Rhodamine red fluorescent dye; PhLac = O=C(O)[CH](O)Cc1ccccc1; NMeT = CN[CH](C(=O)O)[CH](C)O; NMeA = CN[CH](C)C(=O)O; NMeDha = C=C(NC)C(=O)O

Chain of Bombyx neuropeptide G protein-coupled receptor A21 (BNGR-A21), N-terminal FLAG tag (Bombyx mori) (B3XXN4 entry or part of it): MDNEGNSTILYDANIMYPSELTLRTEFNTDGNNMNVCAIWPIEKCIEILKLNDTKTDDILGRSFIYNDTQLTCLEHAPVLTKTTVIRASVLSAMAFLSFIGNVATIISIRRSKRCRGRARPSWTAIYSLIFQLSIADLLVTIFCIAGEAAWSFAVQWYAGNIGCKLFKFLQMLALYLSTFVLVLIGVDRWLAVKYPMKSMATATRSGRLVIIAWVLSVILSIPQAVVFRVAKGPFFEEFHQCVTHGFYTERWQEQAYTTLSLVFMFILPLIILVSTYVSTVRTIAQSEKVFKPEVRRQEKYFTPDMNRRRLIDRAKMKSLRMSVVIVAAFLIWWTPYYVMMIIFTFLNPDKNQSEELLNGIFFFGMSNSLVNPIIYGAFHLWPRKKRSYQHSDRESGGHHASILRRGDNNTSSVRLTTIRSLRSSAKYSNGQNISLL

Turning to `O=S(=O)(NCCNC/C=C/c1ccc(Br)cc1)c1cccc2cnccc12` [H89], the “inhibition of BmCrz-induced luciferase activity” value (“inhibition” for short) with BNGR-A21 (BmCrzR) [1] is listed as “significantly inhibited; also recorded: sensitive”. The “block of BmCrzR-mediated activation of ERK1/2” value (shortened to “block”) in the experiment with BmCrzR (BNGR-A21) [2] was “significantly blocked; also recorded: significantly inhibited”.
With `CC(=O)OCOC(=O)CN(CC(=O)OCOC(C)=O)c1ccccc1OCCOc1ccccc1N(CC(=O)OCOC(C)=O)CC(=O)OCOC(C)=O` [BAPTA-AM], the “inhibition” value with BNGR-A21 (BmCrzR) [1] was “significantly inhibited”. Further, in the experiment on BNGR-A21 (BmCrzR) [3], the “effect of inhibitor on corazonin-mediated Ca^2+ mobilization” value (shortened to “effect of inhibitor”) is given as “sensitive; also recorded: partially impaired”.
In the case of pertussis toxin [PTX], the “effect of pretreatment on corazonin-stimulated cAMP generation” value with BNGR-A21 (BmCrzR) [1] is on record as “no effect on cAMP generation; also recorded: PTX-insensitive”.
For the molecule `COC(=O)C1=C(C)NC(C)=C(C(=O)OC)C1c1ccccc1[N+](=O)[O-]` [nifedipine], the “effect of inhibitor” value with BNGR-A21 (BmCrzR) [3] is on record as “sensitive; also recorded: partially impaired”.
Take `O=C(O)CN(CCOCCOCCN(CC(=O)O)CC(=O)O)CC(=O)O` [EGTA]: the “inhibition” value in the experiment on BNGR-A21 (BmCrzR) [1] is recorded as “significantly inhibited”. The “effect of inhibitor” value in the experiment with BNGR-A21 (BmCrzR) [3] is recorded as “sensitive; also recorded: partially impaired”.
For the molecule `COc1ccc2c(c1)c(C1=C(c3c[nH]c4ccccc34)C(=O)NC1=O)cn2CCCN(C)C` [Go6983], the “inhibition” value in the experiment with BNGR-A21 (BmCrzR) [1] is “significantly inhibited”. Besides, in the experiment on BmCrzR (BNGR-A21) [2], the “block” value is given as “significantly blocked; also recorded: significantly inhibited”.
As for `C=C1C(=O)NC(C)C(=O)N(C)C(C)C(=O)NC(C(OC(=O)C(NC(C)=O)C(O)C(C)C)C(C)C)C(=O)N(C)C(C(C)OC)C(=O)OC(C)C(NC(C)=O)C(=O)OC(Cc2ccccc2)C(=O)N1C` (centres unmarked) [YM-254890] (Ac-T[PhLac][NMeDha]A[NMeA][X1][NMeT](Me); ester 1-C; configuration not given here), the “inhibition” value in the experiment with BNGR-A21 (BmCrzR) [1] is listed as “significantly inhibited; also recorded: sensitive”. Also, in the experiment with BNGR-A21 (BmCrzR) [3], the “effect of inhibitor” value is recorded as “significant decrease in the intracellular Ca^2+ mobilization; also recorded: significantly blocked”.
As usually defined, the EC50 is the concentration that produces a half-maximal response. “endogenous corazonin: endogenous corazonin of A. gambiae (ref 22) (QTFQYSRGWTN; ends and bridges not checked; UniProt A0NDK8 21-31, looked up)”: the “selectivity of A. gambiae CrzR activation” value in the experiment with CrzR in A. gambiae is “only be activated by its endogenous corazonin”. Besides, the EC50 with CrzR in A. gambiae (read-out: activation of A. gambiae CrzR (cAMP accumulation), EC50) was 4 nM.
`N#CC(=C(/N)Sc1ccccc1N)/C(C#N)=C(/N)Sc1ccccc1N` [U0126]: the “block” value with BmCrzR (BNGR-A21) [2] is “significantly blocked; also recorded: significantly inhibited”.
As a reminder, the IC50 is the concentration at which inhibition is half-maximal. For “Bombyx mori corazonin ([Arg^7]corazonin) (peptide)”, in [4], the CRE-driven luciferase reporter (cAMP accumulation), dose response to corazonin, HEK293 cells co-transfected with FLAG-A21/CRE-Luc; EC50 was determined as 4.5 nM and the CRE-driven luciferase reporter (cAMP accumulation), dose response to corazonin, Sf21 cells co-transfected with FLAG-A21/CRE-Luc; EC50 is 1 nM. Moreover, in experiment [5], the ERK1/2 phosphorylation (Western blot), dose response to corazonin, HEK293 cells stably expressing BmCrzR; EC50 worked out at 1.4 nM and the ERK1/2 phosphorylation (Western blot), dose response to corazonin, Sf21 cells expressing BmCrzR; EC50 stood at 4.7 nM. Besides, the IC50 in experiment [6] is 0.49 nM.
In the case of cholera toxin [CTX], the “effect of stimulation with CTX on cellular levels of cAMP” value with BNGR-A21 (BmCrzR) [1] is “remarkable increase in the cellular levels of cAMP”.
For the molecule `COc1ccc2c(c1)CC[C@@H]1[C@@H]2CC[C@]2(C)[C@@H](NCCCCCCN3C(=O)C=CC3=O)CC[C@@H]12` [U73122], the “inhibition” value in the experiment on BNGR-A21 (BmCrzR) [1] was “significantly inhibited”. In addition, the “effect of inhibitor” value is “sensitive; also recorded: significantly blocked” in the experiment on BNGR-A21 (BmCrzR) [3] and “sensitive” in the experiment on BNGR-A21 (BmCrzR) [7].
In the case of “Rho-[Lys^4]BmCrz: Q4K peptide conjugated with rhodamine red at the Lys residue (QTFK(rhodamine red)YSRGWTN; ends and bridges not checked; UniProt Q86N75 20-30, looked up, variant Q4K)”, the EC50 on BmCrzR (BNGR-A21) [8] stood at 86.1 nM.
“Rhodamine red-labeled [Lys^4]BmCrz (peptide)” showed a CRE-driven luciferase reporter; EC50 in experiment [9] of 86.1 nM.
